Tests used:
[1] = system: tubulin acetylation (HDAC6) in RPMI8226 cells; test: Acetylation of Tubulin in cells by Western blot; assay type: cell-based; settings: for concentration at which tubulin acetylation (HDAC6) was expressed: 24 hours
Procedure: To determine the selectivity for HDAC6 in cells, the acetylation levels of Tubulin, Histone H3 and Histone H4 depending on the concentration of compounds were measured by Western blot.
RPMI8226 (1.0×10^6 cells/well) cells were seeded on six-well plates and treated with drugs (Compounds 255 and 374) at each concentration. After 24 hours, the proteins were extracted with RIPA buffer and quantified by the Bradford method. 25 μg of protein was lysed in sample buffer, electrophoresed on a 4-12% gradient gel, and then transferred to nitrocellulose membranes for 50 minutes. Then transferred protein was blocked with 5% skim milk for 1 hour. Anti-acetyl H3 (1:2,000), anti-acetyl H4 (1:5,000), anti-acetyl tubulin (1:5,000), and anti-β-actin antibody (1:10,000) were added into 5% skim milk, and the membranes were immersed in the skim milk, reacted at 4° C. for 16 hours, and then washed three times for 10 minutes each with 1×TBS-T. Then, IgG-HRP antibody (1:5,000) was added into 5% skim milk, and then the membranes were immersed in the skim milk, reacted at room temperature for 40 minutes, and then washed three times for […] each with 1×TBS-T. Then, the acetylation levels were determined with a LAS 3000 using ECL solution.
The acetylation of tubulin, histone H3 and Histone H4 on RPMI8226 cells (1.0×10^6 cells/well) derived from myeloma was determined in the same manner as the cell determination in Example 1.

[2] = system: collagen-induced arthritis models; test: Collagen-induced arthritis models; assay type: in vivo, DBA/1J mice; settings: for arthritis symptoms improved by: versus vehicle group
Procedure: An emulsion was prepared by mixing bovine collagen type II (Chondrex) and complete Freund's adjuvant (Chondrex) at a ratio of 1:1 until the […] using a 1 ml pipette. Each 100 μL of emulsion was intradermally injected into the tail of DBA/1J mice for the first immunization. After 21 days, an emulsion was prepared by mixing bovine collagen type II and incomplete Freund's adjuvant (Chondrex) at a ratio of 1:1 by the same method as above. Each of 100 μL of emulsion was intradermally injected into the upper part of the tail of DBA/1J mice for the second boosting immunization. After the second boosting immunization, the mice were grouped according to body weight, the test drug was administered to each group, and the effects of the test drugs were measured by measuring the clinical score and the body weight. The clinical scores were assigned from 0 to 4, and the total clinical score was determined by evaluating the feet of each mouse and summing up the scores (normal: 0, most severe edema: 16). That is, the efficacy in the arthritis models was evaluated with the severity of edema of the joint, and a higher score was assigned to more severe edema.

HDAC 6 = molecular target: T1, HDAC 6 (Homo sapiens, UniProt Q9UBN7); test: HDAC panel by Reaction Biology Corp., HDAC 6; assay type: biochemical; parameters: Reaction Biology Corp; settings: for IC50: Table 15, Reaction Biology Corp., read-out: HDAC6 inhibitory activity; for Selectivity (HDAC6/1): ratio of the HDAC 1 and HDAC 6 values of Table 15; for selectivity for HDAC6 over HDAC1: text on Table 15
T1 sequence (Q9UBN7 1-1215): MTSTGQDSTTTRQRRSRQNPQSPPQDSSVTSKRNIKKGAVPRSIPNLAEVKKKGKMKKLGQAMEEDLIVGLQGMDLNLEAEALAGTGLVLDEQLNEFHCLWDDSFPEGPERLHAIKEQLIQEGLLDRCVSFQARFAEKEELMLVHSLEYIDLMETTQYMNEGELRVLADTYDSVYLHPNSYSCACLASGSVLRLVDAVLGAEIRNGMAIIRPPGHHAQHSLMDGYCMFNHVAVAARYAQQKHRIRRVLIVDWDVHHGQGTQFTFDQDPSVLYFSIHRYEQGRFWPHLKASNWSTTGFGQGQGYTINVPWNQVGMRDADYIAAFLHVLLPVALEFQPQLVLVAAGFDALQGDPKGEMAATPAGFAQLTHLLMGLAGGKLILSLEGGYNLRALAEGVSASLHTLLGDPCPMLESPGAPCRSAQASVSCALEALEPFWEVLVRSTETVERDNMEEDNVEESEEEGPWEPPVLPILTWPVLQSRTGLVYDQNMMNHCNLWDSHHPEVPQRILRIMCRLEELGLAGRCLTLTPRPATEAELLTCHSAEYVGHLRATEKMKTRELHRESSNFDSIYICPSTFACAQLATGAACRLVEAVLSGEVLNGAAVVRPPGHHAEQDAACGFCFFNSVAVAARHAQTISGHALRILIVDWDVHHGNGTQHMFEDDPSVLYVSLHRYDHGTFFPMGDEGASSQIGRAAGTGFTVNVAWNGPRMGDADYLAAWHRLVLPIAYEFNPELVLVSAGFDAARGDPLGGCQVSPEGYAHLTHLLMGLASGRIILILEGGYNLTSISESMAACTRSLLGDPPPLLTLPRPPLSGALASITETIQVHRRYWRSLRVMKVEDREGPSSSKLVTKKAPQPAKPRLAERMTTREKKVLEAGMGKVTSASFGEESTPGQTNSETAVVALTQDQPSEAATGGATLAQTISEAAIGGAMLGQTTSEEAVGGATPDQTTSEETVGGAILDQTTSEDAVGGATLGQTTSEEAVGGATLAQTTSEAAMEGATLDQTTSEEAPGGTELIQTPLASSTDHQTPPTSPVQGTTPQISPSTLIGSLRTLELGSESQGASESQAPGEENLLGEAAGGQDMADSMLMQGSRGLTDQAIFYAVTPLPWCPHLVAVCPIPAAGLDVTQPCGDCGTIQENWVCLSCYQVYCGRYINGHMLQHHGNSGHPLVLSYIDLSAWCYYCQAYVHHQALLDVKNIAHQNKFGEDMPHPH
Excerpt: The inhibitory activities of Compounds 255 and 374 on all HDACs were confirmed (by Reaction Biology Corp.).

| SMILES | cell selectivity (tubulin versus histone acetylation) [1] | concentration at which tubulin acetylation (HDAC6) was expressed [1] | clinical score ([2]; 10 mg/kg twice a day, score 0 to 16, vehicle group 11.6) | clinical score ([2]; 30 mg/kg twice a day, score 0 to 16, vehicle group 11.6) | arthritis symptoms improved by ([2]; 10 and 30 mg/kg twice a day) | IC50 (HDAC 6) [nM] | Selectivity (HDAC6/1) (HDAC 6) | selectivity for HDAC6 over HDAC1 (HDAC 6) [times] | arthritis symptoms improved by ([2]; different concentrations (doses not given)) | clinical score ([2]; different concentrations, first value listed (dose not given), vehicle group 6.7) | clinical score ([2]; different concentrations, second value listed (dose not given), vehicle group 6.7) |
| --- | --- | --- | --- | --- | --- | --- | --- | --- | --- | --- | --- |
| O=C(NO)c1ccc(CN(C(=O)N2CCOCC2)c2cccc(Br)c2)cc1 [Compound 255, N-(3-bromophenyl)-N-(4-(hydroxycarbamoyl)benzyl)morpholine-4-carboxamide] | excellent cell selectivity | about 10 nM | 5.2 | 6.5 | more than 50% | 1 | 160 | 160 | – | – | – |
| O=C(NO)c1ccc(CN(C(=O)N2CCOCC2)c2cccc(C(F)(F)F)c2)cc1 [Compound 374, N-(4-(hydroxycarbamoyl)benzyl)-N-(3-(trifluoromethyl)phenyl)morpholine-4-carboxamide] | excellent cell selectivity | about 10 nM | – | – | – | 5 | 424 | 424 | more than 60% | 2.8 | 2.5 |

From US9878986B2, “Compounds for selective histone deacetylase inhibitors, and pharmaceutical composition comprising the same” (CHONG KUN DANG PHARMACEUTICAL CORP., priority 2013, dated 2018)
